Experiments:
[1] = refractive index (Na D-line) (dimensionless); conditions: 298.15 K; 101.33 kPa; Liquid; Standard Abbe refractometry
[2] = Liquid; for speed of sound: Frequency=1.5 MHz, Single path-length method; for mass density: 298.15 K, 101.33 kPa, Vibrating tube method

CCCO [propan-1-ol]
Conditions	mass density [kg/m3]	refractive index
[1]	–	1.383
[2]	799.5	–

speed of sound [m/s], [2]
Conditions	283.15 K	293.15 K	303.15 K	313.15 K	323.15 K	333.15 K	343.15 K
100 kPa	1260.3	1223.5	1189.2	1155.3	1121.7	1088.3	1054.4
5100 kPa	1287.8	1252.2	1219.6	1186.7	1153.8	1122.2	1090.2
10100 kPa	1313.7	1279.6	1248.2	1216.4	1184.6	1153.7	1123.4
20100 kPa	1362.3	1330	1300.9	1271.4	1241.7	1212.8	1183.9
30100 kPa	1407.9	1377	1349.1	1320.6	1293	1265.9	1239.2
40100 kPa	1450.3	1420.8	1394.3	1366.8	1340.2	1314.2	1289.2
50100 kPa	1490.2	1461.7	1436.6	1410.1	1384.6	1359.7	1335.5
60100 kPa	1527.4	1500.3	1476.2	1450.6	1426.4	1402.2	1379
70100 kPa	1563.2	1537.2	1513.7	1489.5	1465.1	1441.9	1419.9
80100 kPa	1597.2	1572.1	1549.5	1525.9	1502.3	1479.3	1458.2
90100 kPa	1630	1605.3	1583.6	1560.4	1537.5	1515.2	1497.2
95100 kPa	1645.7	1621.6	1600.1	1577.2	1554.4	1532.6	1512.2

Cc1ccccc1 [toluene]
Conditions	mass density [kg/m3]	refractive index
[1]	–	1.494
[2]	862.2	–

speed of sound [m/s], [2]
Conditions	283.15 K	293.15 K	303.15 K	313.15 K	323.15 K	333.15 K	343.15 K
100 kPa	1369.5	1327.9	1284.1	1241.9	1200.2	1156.6	1118
5100 kPa	1395.4	1352.2	1309.8	1269	1229.2	1187.4	1149.1
10100 kPa	1418.1	1376	1334.3	1294.5	1256.4	1215.9	1178.9
20100 kPa	1460.8	1420.5	1380.9	1341	1306.4	1268.1	1234.3
30100 kPa	1500.8	1462	1424	1387	1352.7	1315.7	1283.9
40100 kPa	1538.7	1500.9	1464.7	1429.5	1396.3	1360.3	1329.5
50100 kPa	1574.4	1537.9	1503.3	1468.9	1436.9	1402.7	1371.4
60100 kPa	1608.1	1572.4	1539.6	1506.4	1474.9	1441.4	1413.5
70100 kPa	1640.3	1605.2	1572.1	1542.7	1511	1478.2	1451.5
80100 kPa	1670.9	1637	1605.2	1576.1	1545.3	1513.1	1487.6
90100 kPa	1700.3	1667.1	1638.2	1607.4	1576.7	1546.5	1522.1
95100 kPa	1714.5	1682	1653.5	1621.2	1591.2	1563	1538.7

O [water]
Conditions	refractive index
[1]	1.3326

speed of sound [m/s], [2]
Conditions	283.15 K	293.15 K	303.15 K	313.15 K	323.15 K	333.15 K	343.15 K
100 kPa	1447.3	–	–	1528.9	–	1551	1554.8
5100 kPa	1455.9	1490.5	1517.5	1537.6	1551.5	1560.1	1565
10100 kPa	1463.8	1498.9	1525.9	1546.1	1560.2	1569.2	1574.4
20100 kPa	1479.9	1515.3	–	1563.2	1577.7	1587.1	1592.8
30100 kPa	1496.2	1531.9	1559.5	1580.3	1595	1604.8	1610.8
40100 kPa	1513.4	1548.6	1576.3	1597.1	1612.2	1622.2	1628.6
50100 kPa	–	1565.3	1593.1	1613.8	1629	1639.3	1646.1
60100 kPa	1548	1582.2	1609.8	1630.4	1645.7	1656.3	1663.9
70100 kPa	1565.4	1599.1	1626.3	1646.9	1662.3	1673.1	1681
80100 kPa	1582.7	1615.8	1642.6	1663.3	1678.3	1689.6	1697.4
90100 kPa	1600.1	1632.4	1659	1679.4	1694.9	1705.9	1714.2
95100 kPa	1608.7	1640.7	1667.3	1687.5	1702.9	1714	1723

— the NIST ThermoML archive (doi:10.1016/j.jct.2016.09.022)
